How the values were obtained:
[1] = target: T1, Type-2 angiotensin II receptor (Homo sapiens, UniProt P50052); assay: biochemical; format: cell-based, CHO-K1; details: cho-k1; note: in other assays of this panel Not Active means under 50% inhibition at 10 µM
T1 sequence (P50052 whole entry): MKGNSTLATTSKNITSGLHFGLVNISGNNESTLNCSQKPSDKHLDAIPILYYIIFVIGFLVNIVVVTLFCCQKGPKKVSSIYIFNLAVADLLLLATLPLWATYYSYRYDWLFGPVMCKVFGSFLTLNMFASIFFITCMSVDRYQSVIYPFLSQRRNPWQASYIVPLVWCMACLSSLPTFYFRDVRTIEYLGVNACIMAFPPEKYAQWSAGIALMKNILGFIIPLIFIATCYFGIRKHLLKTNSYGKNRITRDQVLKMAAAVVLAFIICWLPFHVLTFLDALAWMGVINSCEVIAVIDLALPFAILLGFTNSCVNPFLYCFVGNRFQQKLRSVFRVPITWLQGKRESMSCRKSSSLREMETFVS

[2] = target: C-C chemokine receptor type 2 (Homo sapiens, UniProt P41597); format: cell membranes, Membrane; details: cho-k1; note: in other assays of this panel Not Active means under 50% inhibition at 10 µM
C-C chemokine receptor type 2, sequence (P41597 whole entry): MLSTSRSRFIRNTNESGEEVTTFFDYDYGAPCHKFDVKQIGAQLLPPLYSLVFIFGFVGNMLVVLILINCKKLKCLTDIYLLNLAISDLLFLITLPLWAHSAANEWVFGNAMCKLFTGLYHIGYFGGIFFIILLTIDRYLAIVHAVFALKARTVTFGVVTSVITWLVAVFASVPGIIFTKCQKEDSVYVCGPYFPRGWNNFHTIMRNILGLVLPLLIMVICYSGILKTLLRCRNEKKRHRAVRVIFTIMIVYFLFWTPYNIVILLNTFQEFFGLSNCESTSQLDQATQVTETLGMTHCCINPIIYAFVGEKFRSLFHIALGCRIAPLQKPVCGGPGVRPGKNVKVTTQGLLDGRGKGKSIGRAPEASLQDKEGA

[3] = target: T2, C-X-C chemokine receptor type 1 (Homo sapiens, UniProt P25024); note: in other assays of this panel Not Active means under 50% inhibition at 10 µM
T2 sequence (P25024 whole entry): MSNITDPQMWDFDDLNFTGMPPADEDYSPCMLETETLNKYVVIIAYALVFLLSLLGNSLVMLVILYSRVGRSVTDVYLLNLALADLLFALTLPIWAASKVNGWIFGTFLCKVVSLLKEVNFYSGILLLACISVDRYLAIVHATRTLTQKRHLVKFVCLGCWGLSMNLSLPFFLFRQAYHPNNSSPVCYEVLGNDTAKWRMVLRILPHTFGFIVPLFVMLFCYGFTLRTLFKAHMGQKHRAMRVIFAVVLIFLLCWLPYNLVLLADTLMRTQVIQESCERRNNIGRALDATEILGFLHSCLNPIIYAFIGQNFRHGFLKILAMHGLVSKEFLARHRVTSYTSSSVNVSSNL

Insulin receptor = Insulin receptor (Rattus norvegicus, UniProt P15127); format: cell membranes, Wistar, Liver, Membrane; note: in other assays of this panel Not Active means under 50% inhibition at 10 µM
Insulin receptor, sequence (P15127 27-759 limits assumed): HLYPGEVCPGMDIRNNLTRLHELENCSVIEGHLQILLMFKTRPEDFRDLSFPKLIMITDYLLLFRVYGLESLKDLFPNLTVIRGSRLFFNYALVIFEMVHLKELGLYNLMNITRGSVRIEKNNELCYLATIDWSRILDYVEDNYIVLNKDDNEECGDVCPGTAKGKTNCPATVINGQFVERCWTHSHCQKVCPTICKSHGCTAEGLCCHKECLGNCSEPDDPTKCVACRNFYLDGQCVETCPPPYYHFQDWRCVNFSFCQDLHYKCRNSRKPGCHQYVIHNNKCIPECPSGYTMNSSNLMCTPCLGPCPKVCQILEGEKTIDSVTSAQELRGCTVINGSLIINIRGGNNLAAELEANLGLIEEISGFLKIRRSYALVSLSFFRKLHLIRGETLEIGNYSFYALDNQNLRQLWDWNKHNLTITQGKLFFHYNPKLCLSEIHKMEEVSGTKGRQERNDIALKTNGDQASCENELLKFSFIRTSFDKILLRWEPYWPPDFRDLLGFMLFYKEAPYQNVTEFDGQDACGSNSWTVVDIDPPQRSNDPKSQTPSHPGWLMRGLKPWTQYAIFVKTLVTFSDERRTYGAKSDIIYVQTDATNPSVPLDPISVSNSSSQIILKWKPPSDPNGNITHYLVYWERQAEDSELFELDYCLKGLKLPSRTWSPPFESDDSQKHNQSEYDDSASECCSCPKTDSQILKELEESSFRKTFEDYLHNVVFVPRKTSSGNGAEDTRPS
Insulin receptor, sequence (P15127 764-1383 limits assumed): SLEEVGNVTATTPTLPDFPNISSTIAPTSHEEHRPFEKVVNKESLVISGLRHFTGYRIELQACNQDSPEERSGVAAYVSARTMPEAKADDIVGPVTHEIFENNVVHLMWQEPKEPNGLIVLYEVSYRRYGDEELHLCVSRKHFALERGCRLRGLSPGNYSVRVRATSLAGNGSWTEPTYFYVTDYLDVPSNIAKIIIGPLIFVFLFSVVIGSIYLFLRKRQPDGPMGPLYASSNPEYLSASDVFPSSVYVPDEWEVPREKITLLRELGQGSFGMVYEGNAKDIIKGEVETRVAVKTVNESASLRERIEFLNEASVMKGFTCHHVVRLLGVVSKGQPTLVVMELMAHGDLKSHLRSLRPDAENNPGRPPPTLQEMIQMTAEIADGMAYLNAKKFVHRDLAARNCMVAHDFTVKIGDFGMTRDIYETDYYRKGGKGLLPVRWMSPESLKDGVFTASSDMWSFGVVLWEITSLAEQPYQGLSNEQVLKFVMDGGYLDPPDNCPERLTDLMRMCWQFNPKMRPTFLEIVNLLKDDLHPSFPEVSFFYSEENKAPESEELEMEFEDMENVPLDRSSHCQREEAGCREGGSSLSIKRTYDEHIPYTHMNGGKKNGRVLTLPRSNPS

[4] = DRUGMATRIX: Leukotriene, BLT (LTB4) radioligand binding (ligand: [3H]LTB4); format: cell membranes, Membrane; details: u-937; Not Active = under 50% inhibition at 10 µM
[5] = target: T3, Cysteinyl leukotriene receptor 1 (Homo sapiens, UniProt Q9Y271); format: cell membranes, Membrane; details: cho-k1; note: in other assays of this panel Not Active means under 50% inhibition at 10 µM
T3 sequence (Q9Y271 whole entry): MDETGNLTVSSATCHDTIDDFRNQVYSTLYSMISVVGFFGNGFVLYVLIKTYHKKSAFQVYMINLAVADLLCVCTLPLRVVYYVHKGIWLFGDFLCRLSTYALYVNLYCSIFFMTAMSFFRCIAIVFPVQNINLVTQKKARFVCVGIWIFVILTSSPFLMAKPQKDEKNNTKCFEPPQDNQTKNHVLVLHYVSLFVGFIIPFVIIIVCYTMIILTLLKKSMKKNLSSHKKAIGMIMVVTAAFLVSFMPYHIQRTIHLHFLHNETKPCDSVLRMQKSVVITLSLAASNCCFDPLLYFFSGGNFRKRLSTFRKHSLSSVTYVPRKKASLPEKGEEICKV

[6] = target: T4, Amine oxidase [flavin-containing] A (Homo sapiens, UniProt P21397); assay: DRUGMATRIX: Monoamine Oxidase MAO-A enzyme inhibition (substrate: Kynuramine); design: species or system BTI-TN-5B1-4; details: bti-tn-5b1-4; Not Active = under 50% inhibition at 10 µM
T4 sequence (P21397 whole entry): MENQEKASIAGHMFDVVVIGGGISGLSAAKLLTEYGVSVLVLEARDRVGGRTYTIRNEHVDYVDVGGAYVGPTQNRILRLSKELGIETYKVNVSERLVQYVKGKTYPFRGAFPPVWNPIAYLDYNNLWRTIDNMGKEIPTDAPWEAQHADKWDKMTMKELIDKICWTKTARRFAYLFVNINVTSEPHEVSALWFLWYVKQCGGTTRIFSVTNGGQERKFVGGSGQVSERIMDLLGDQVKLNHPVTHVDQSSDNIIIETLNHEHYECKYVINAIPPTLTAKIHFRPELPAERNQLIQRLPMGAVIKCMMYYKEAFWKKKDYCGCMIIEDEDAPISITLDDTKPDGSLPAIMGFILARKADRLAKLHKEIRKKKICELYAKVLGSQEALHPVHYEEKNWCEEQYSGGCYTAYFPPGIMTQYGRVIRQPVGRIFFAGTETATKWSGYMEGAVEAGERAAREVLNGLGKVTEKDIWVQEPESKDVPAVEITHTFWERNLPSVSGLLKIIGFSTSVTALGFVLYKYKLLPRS

Glucocorticoid receptor = target: T5, Glucocorticoid receptor (Homo sapiens, UniProt P04150); details: hela s3; note: in other assays of this panel Not Active means under 50% inhibition at 10 µM
T5 sequence (P04150 whole entry): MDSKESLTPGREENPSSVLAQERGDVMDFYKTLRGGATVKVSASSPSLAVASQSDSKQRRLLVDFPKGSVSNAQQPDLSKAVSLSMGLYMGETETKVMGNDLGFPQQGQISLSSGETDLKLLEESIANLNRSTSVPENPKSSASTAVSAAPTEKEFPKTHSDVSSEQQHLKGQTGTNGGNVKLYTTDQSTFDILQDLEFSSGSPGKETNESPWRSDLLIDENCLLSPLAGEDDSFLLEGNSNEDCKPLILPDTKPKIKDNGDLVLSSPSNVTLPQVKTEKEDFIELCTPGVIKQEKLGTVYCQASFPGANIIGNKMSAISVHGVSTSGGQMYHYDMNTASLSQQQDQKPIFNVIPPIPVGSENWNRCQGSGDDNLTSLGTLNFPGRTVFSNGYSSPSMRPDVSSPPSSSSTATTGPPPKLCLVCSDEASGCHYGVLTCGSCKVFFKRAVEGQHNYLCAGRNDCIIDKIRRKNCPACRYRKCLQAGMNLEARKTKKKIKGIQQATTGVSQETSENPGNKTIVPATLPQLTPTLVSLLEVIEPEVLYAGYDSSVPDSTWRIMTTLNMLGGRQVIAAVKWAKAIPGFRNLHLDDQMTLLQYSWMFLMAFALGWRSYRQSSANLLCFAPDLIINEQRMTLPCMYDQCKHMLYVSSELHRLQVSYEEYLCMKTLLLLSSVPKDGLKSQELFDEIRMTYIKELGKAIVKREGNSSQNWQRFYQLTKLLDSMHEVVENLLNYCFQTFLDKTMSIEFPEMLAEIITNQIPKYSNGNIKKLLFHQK

CCCNC(C)C(=O)Nc1ccccc1C (centres undefined) [PRILOCAINE]
Not Active: IC50 [1] | IC50 [2] | IC50 [3] | IC50 (Insulin receptor) | IC50 [4] | Ki [4] | IC50 [5] | IC50 [6] | IC50 (Glucocorticoid receptor)

CCN(CC)CCCC(C)Nc1c2ccc(Cl)cc2nc2ccc(OC)cc12 (centres undefined) [QUINACRINE]
Not Active: IC50 [1] | IC50 [2] | IC50 [3] | IC50 (Insulin receptor) | IC50 [4] | Ki [4] | IC50 [5] | IC50 [6] | IC50 (Glucocorticoid receptor)

CC[C@]1(O)C[C@@H]2CN(CCc3c([nH]c4ccccc34)[C@@](C(=O)OC)(c3cc4c(cc3OC)N(C)[C@H]3[C@@](O)(C(N)=O)[C@H](O)[C@]5(CC)C=CCN6CC[C@]43[C@@H]65)C2)C1 [VINDESINE]
Not Active: IC50 [1] | IC50 [2] | IC50 [3] | IC50 (Insulin receptor) | IC50 [4] | Ki [4] | IC50 [5] | IC50 [6] | IC50 (Glucocorticoid receptor)

COBALTOUS CHLORIDE
Not Active: IC50 [1] | Ki [1] | IC50 [2] | Ki [2] | IC50 [3] | Ki [3] | IC50 (Insulin receptor) | Ki (Insulin receptor) | IC50 [4] | Ki [4] | IC50 [5] | Ki [5] | IC50 [6] | Ki [6] | IC50 (Glucocorticoid receptor) | Ki (Glucocorticoid receptor)

COLISTIN
Not Active: IC50 [1] | Ki [1] | IC50 [2] | Ki [2] | IC50 [3] | Ki [3] | IC50 (Insulin receptor) | Ki (Insulin receptor) | IC50 [4] | Ki [4] | IC50 [5] | Ki [5] | IC50 [6] | Ki [6] | IC50 (Glucocorticoid receptor) | Ki (Glucocorticoid receptor)
